According to patent publication US20140128365A1, “PYRIDONE/HYDROXYPYRIDINE 11-BETA HYDROXYSTEROID DEHYDROGENASE TYPE I INHIBITORS” (BRISTOL-MYERS SQUIBB COMPANY, priority 2012, published 2014):
Read-outs that look alike come from different tables or passages of the source.

Columns and labels:
[1] = molecular target: T1, recombinant human 11beta-HSD1 (Homo sapiens, UniProt P28845); experiment: In vitro inhibition of recombinant human 11beta-HSD1, microsomal Scintillation Proximity Assay (SPA); format: biochemical; settings: microsomes from HEK 293 EBNA cells, 250 nM [3H]-cortisone, 500 μM NADPH, pH 6.5, room temperature
T1 construct: made in house; microsomal fraction used as enzyme source
T1 sequence (P28845 whole entry): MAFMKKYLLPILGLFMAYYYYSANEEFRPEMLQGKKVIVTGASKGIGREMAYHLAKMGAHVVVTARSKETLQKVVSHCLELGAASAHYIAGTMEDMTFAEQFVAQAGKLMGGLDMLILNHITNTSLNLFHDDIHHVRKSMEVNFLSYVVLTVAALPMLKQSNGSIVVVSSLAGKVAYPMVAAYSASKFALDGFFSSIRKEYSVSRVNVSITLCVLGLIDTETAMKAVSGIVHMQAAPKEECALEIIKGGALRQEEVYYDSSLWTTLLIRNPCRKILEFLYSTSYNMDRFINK
Description: The in vitro inhibition of recombinant human 11beta-HSD1 was determined as follows.
Cells were grown in DMEM (high glucose) containing MEM non-essential amino acids, L-glutamine, hygromycine B (200 ug/ml), and G418 (200 ug/ml). The cell pellets were homogenized, and the microsomal fraction was obtained by differential centrifugation. 11beta-HSD1 over expressed microsomes were used as the enzyme source for the Scintillation Proximity Assay (SPA). […] The reaction was terminated with the addition of 1 mM 18β-glycerrhentic acid. SPA reagent mixture (YSi anti-rabbit IgG, anti-cortisol antibody in 50 mM Tris, pH 8.0 containing 1% CHAPS and 1% glycerol) was added and the reaction was further incubated at room temperature over night and counted in TopCount.
In the structures set forth in Table 10, the “—O” attached to the carbon adjacent to the nitrogen in the bicyclic core is used to denote an “—OH” group as indicated in Formula I. Similarly, in the structures set forth in Table 10, the “N” adjacent to the carbon atom substituted with ═O in the bicyclic or tricyclic core is used to denote an “NH” moiety as indicated in Formula I-t.

[2] = test system: hepatic glucose production; settings: seven day treatment, patients with type 2 diabetes, versus placebo group; cited from earlier work

| Molecule | IC50 [1] | other results |
| --- | --- | --- |
| COc1cccc(CSc2nc(O)c(C#N)c3c2CCCC3)c1 [Example 17] | 461 nM | – |
| CC1(C)[C@@H](OC(=O)CCC(=O)O)CC[C@]2(C)[C@H]3C(=O)C=C4[C@@H]5C[C@@](C)(C(=O)O)CC[C@]5(C)CC[C@@]4(C)[C@]3(C)CC[C@@H]12 [carbenoxolone] | – | hepatic glucose production [2]: decrease in hepatic glucose production |
| 4,7-Dichloro-1-(2-chlorobenzylthio)isoquinolin-3-ol [Example 109] | – | IC50 ([1]; read-out: IC50 (concentration of compound required for 50% inhibition of cortisol formation)): 671 nM |
| COc1ccc(CSc2nc(O)c(C#N)c3c2CCCC3)cc1 [Example 25] | 467 nM | – |

Second part, led by results:

| IC50 [1] | Molecule | other results |
| --- | --- | --- |
| 1.45 nM | N#Cc1ccccc1CSc1nc(O)c(C#N)c2ccc(F)cc12 [Example 153] | – |
| > 10000 nM | N#Cc1c(O)nc(SCc2ccccc2C(=O)O)c2c1CCCC2 [Example 34] | – |
